Laboratory results reported in ChEMBL document CHEMBL3244164, “Synthesis and analgesic activity of 1,3-dihydro-3-(substituted phenyl)imidazo[4,5-b]pyridin-2-ones and 3-(substituted phenyl)-1,2,3-triazolo[4,5-b]pyridines” (J Med Chem, 1978).

How the values were obtained:
[1] = system: Rattus norvegicus; assay: Analgesic activity in Sprague-Dawley rat brewer's yeast treated foot assessed as response threshold at 32 mg/kg, po; assay type: functional
[2] = system: Rattus norvegicus; assay: Analgesic activity in Sprague-Dawley rat normal foot assessed as response threshold at 32 mg/kg, po; assay type: functional

SMILES	Activity [1] [mm]	Activity [2] [mm]
O=c1[nH]c2ccccc2n1-c1ccc2c(c1)OCO2	<25	<40
O=c1[nH]c2cncnc2n1-c1ccccc1F	<25	<40
O=c1[nH]c2cccnc2n1-c1cccc(C(F)(F)F)c1	<25	<40
C=CCSc1nc2cccnc2n1-c1ccc2c(c1)OCO2	<25	<40
Cc1cccc(-n2c(=O)[nH]c3cccnc32)n1	<25	<40
O=c1[nH]c2cc([N+](=O)[O-])cnc2n1-c1ccccc1F	<25	<40
NC(=O)c1ccccc1-n1nnc2cccnc21	25	<40
O=C(O)c1ccc(-n2nnc3cccnc32)cc1	<25	<40
COC(=O)c1cnc2c(c1)[nH]c(=O)n2-c1ccccc1F	<25	<40
COc1ccc(OC)c(-n2c(=O)[nH]c3cccnc32)c1	<25	<40
N#Cc1ccccc1-n1nnc2cccnc21	25	<40
CCc1ccc(-n2c(=O)[nH]c3cccnc32)cc1	<25	<40
C=CCn1c(=O)n(-c2cccc(C(=O)OCC)c2)c2ncccc21	<25	<40
Cc1oc2ccc(-n3nnc4cccnc43)cc2c1C	<25	<40
O=c1n(CCC2CCCCC2)c2cccnc2n1-c1ccc2c(c1)OCO2	<25	<40
Clc1ccc2nnn(-c3ccccc3)c2n1	<25	<40
COc1cccc(-n2nnc3cccnc32)c1	<25	<40
CC(C)c1ccccc1-n1nnc2cccnc21	25	<40
COc1ccc(-n2c(=O)[nH]c3cccnc32)cc1	<25	<40
Cc1ccc(F)c(-n2c(=O)[nH]c3cccnc32)c1	<25	40
c1ccc(-c2nc3cccnc3n2-c2ccc3c(c2)OCO3)cc1	<25	<40
CC(C)=O.O=C(Cn1c(=O)n(-c2ccc3c(c2)OCO3)c2ncccc21)c1ccccc1	<25	40
O=c1[nH]c2cccnc2n1-c1ccc(Oc2ccccc2)cc1	<25	<40

SMILES	Activity [1] [mm]	Activity [2] [mm]
CCCCCCn1c(=O)n(-c2ccc3c(c2)OCO3)c2ncccc21	25	<40
Cc1cc2c(cc1-n1c(=O)[nH]c3cccnc31)OCO2	<25	<40
CCOC(=O)c1cccc(-n2nnc3cccnc32)c1	<25	<40
C=CCn1c(=O)n(-c2ccc3c(c2)COCO3)c2ncccc21	<25	<40
O=C(O)c1ccc(-n2c(=O)[nH]c3cccnc32)cc1	<25	<40
O=c1[nH]c2cccnc2n1-c1ccc(Cl)cc1Cl	25	<40
c1ccc(Oc2ccc(-n3nnc4cccnc43)cc2)cc1	<25	<40
O=c1[nH]c2cccnc2n1-c1ccc(Cl)c(Cl)c1	<25	<40
O=c1[nH]c2cccnc2n1-c1ccccc1F	25	<40
C=CCn1c(=O)n(-c2ccc(C)c(OC)c2)c2ncccc21	<25	<40
CC(C)=CCn1c(=O)n(-c2ccc3c(c2)OCO3)c2ncccc21	<25	<40
CCOCn1c(=O)n(-c2ccc3c(c2)OCO3)c2ncccc21	<25	<40
c1cnc2c(c1)nnn2-c1ccc2c(c1)COCO2	<25	<40
Cc1ccc(-n2nnc3cccnc32)c(C)c1	<25	<40
Clc1ccc(-n2nnc3cccnc32)cc1Cl	<25	<40
C=CCn1c(=O)n(-c2ccc(OC)c(OC)c2)c2ncccc21	<25	<40
Cc1ccc(-n2nnc3cccnc32)cc1C	<25	<40
c1cnc2c(c1)nnn2-c1ccc2c(c1)CCC2	<25	<40
COc1cc(-n2nnc3cccnc32)cc(OC)c1OC	<25	<40
CC(=O)OCCn1c(=O)n(-c2ccc3c(c2)OCO3)c2ncccc21	25	<40
O=c1[nH]c2cccnc2n1-c1c(F)cccc1F	<25	<40
Fc1cccc(F)c1-n1nnc2cccnc21	25	<40
